In PubChem BioAssay (NCI):
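Each compound was tested at five concentrations against cells in 96-well plates for 48 hours. TGI: total growth inhibition.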

Columns and labels:
Assay in all cases: NCI anticancer screen, dose series, 48 h
[1] = system: 786-0 renal
[2] = system: A549 NSCLC
[3] = system: ACHN renal
[4] = system: BT-549 breast
[5] = system: CAKI-1 renal
[6] = system: COLO 205 colon
[7] = system: DU-145 prostate
[8] = system: EKVX NSCLC
[9] = system: HCT-116 colon
[10] = system: HCT-15 colon
[11] = system: HL-60(TB) leukemia
[12] = system: HOP-62 NSCLC
[13] = system: HOP-92 NSCLC
[14] = system: HS 578T breast
[15] = system: HT29 colon
[16] = system: IGROV1 ovarian
[17] = system: K-562 leukemia
[18] = system: KM12 colon
[19] = system: M14 melanoma
[20] = system: MALME-3M melanoma
[21] = system: MCF7 breast
[22] = system: MDA-MB-231 breast
[23] = system: MDA-MB-435
[24] = system: MOLT-4 leukemia
[25] = system: NCI-H226 lung
[26] = system: NCI-H23 lung
[27] = system: NCI-H460 lung
[28] = system: NCI-H522 lung
[29] = system: NCI/ADR-RES ovarian
[30] = system: OVCAR-3 ovarian
[31] = system: OVCAR-4 ovarian
[32] = system: OVCAR-5 ovarian
[33] = system: OVCAR-8 ovarian
[34] = system: PC-3 prostate
[35] = system: RPMI-8226 leukemia
[36] = system: RXF 393 renal
[37] = system: SF-268 CNS
[38] = system: SF-295 CNS
[39] = system: SF-539 CNS
[40] = system: SK-MEL-2 melanoma
[41] = system: SK-MEL-28 melanoma
[42] = system: SK-MEL-5 melanoma
[43] = system: SK-OV-3 ovarian
[44] = system: SN12C renal
[45] = system: SNB-19 CNS
[46] = system: SNB-75 CNS
[47] = system: SR leukemia
[48] = system: SW-620 colon
[49] = system: T-47D breast
[50] = system: TK-10 renal
[51] = system: U251 CNS
[52] = system: UACC-257 melanoma
[53] = system: UACC-62 melanoma
[54] = system: UO-31 renal
[55] = system: A498 renal
[56] = system: CCRF-CEM leukemia
[57] = system: HCC-2998 colon

O=[N+]([O-])c1ccc(-c2nc(/C=N/N3CCCCC3)cs2)o1
TGI [1]: > 100 µM | TGI [2]: > 100 µM | TGI [3]: > 100 µM | TGI [4]: > 100 µM | TGI [5]: > 100 µM | TGI [6]: > 100 µM | TGI [7]: > 100 µM | TGI [8]: > 100 µM | TGI [9]: > 100 µM | TGI [10]: > 100 µM | TGI [11]: > 100 µM | TGI [12]: > 100 µM | TGI [13]: > 100 µM | TGI [14]: > 100 µM | TGI [15]: 57.1 µM | TGI [16]: > 100 µM | TGI [17]: > 100 µM | TGI [18]: > 100 µM | TGI [19]: > 100 µM | TGI [20]: 76.6 µM | TGI [21]: > 100 µM | TGI [22]: > 100 µM | TGI [23]: 62.6 µM | TGI [24]: 67 µM | TGI [25]: > 100 µM | TGI [26]: > 100 µM | TGI [27]: > 100 µM | TGI [28]: > 100 µM | TGI [29]: > 100 µM | TGI [30]: 82.4 µM | TGI [31]: > 100 µM | TGI [32]: > 100 µM | TGI [33]: > 100 µM | TGI [34]: > 100 µM | TGI [35]: 39.8 µM | TGI [36]: > 100 µM | TGI [37]: > 100 µM | TGI [38]: > 100 µM | TGI [39]: > 100 µM | TGI [40]: > 100 µM | TGI [41]: > 100 µM | TGI [42]: 59.5 µM | TGI [43]: > 100 µM | TGI [44]: 68.1 µM | TGI [45]: > 100 µM | TGI [46]: > 100 µM | TGI [47]: 73 µM | TGI [48]: > 100 µM | TGI [49]: > 100 µM | TGI [50]: > 100 µM | TGI [51]: > 100 µM | TGI [52]: 50.7 µM | TGI [53]: > 100 µM | TGI [54]: > 100 µM

COc1ccc2c(c1)-c1c(c3cc(OC)ccc3n1CCN1CCOCC1)CC2
TGI [1]: 42.5 µM | TGI [55]: > 100 µM | TGI [2]: > 100 µM | TGI [3]: > 100 µM | TGI [4]: > 100 µM | TGI [5]: > 100 µM | TGI [56]: 35.6 µM | TGI [6]: 37.3 µM | TGI [7]: > 100 µM | TGI [57]: 18.5 µM | TGI [9]: > 100 µM | TGI [10]: 39.4 µM | TGI [12]: > 100 µM | TGI [13]: > 100 µM | TGI [14]: 39.9 µM | TGI [15]: 28.1 µM | TGI [16]: > 100 µM | TGI [17]: 36.2 µM | TGI [18]: > 100 µM | TGI [19]: 35 µM | TGI [20]: 79.2 µM | TGI [21]: > 100 µM | TGI [22]: > 100 µM | TGI [23]: > 100 µM | TGI [24]: 33.6 µM | TGI [25]: 30.6 µM | TGI [26]: > 100 µM | TGI [27]: > 100 µM | TGI [28]: > 100 µM | TGI [29]: 98.4 µM | TGI [30]: > 100 µM | TGI [31]: > 100 µM | TGI [32]: > 100 µM | TGI [33]: > 100 µM | TGI [34]: > 100 µM | TGI [35]: 85.5 µM | TGI [36]: 98 µM | TGI [37]: > 100 µM | TGI [38]: 55.2 µM | TGI [39]: 93.6 µM | TGI [40]: > 100 µM | TGI [41]: > 100 µM | TGI [42]: 79.5 µM | TGI [43]: > 100 µM | TGI [44]: > 100 µM | TGI [46]: > 100 µM | TGI [47]: 22 µM | TGI [48]: > 100 µM | TGI [49]: > 100 µM | TGI [50]: > 100 µM | TGI [51]: > 100 µM | TGI [52]: > 100 µM | TGI [53]: 52.6 µM | TGI [54]: > 100 µM
